In paper PMC10234496 (Organic letters, 2022):

How the values were obtained:
E. cloacae = assay: MIC against E. cloacae; format: cell-based; conditions: Gram-negative; measured in duplicate
E. coli = assay: MIC against E. coli; format: cell-based, Escherichia coli; conditions: Gram-negative; measured in duplicate
K. pneumoniae = assay: MIC against K. pneumoniae; format: cell-based, Klebsiella pneumoniae; conditions: Gram-negative; measured in duplicate
A. baumannii = assay: MIC against A. baumannii; format: cell-based, Acinetobacter baumannii; conditions: Gram-negative; measured in duplicate
P. aeruginosa = assay: MIC against P. aeruginosa; format: cell-based, Pseudomonas aeruginosa; conditions: Gram-negative; measured in duplicate
S. aureus = assay: MIC against S. aureus; format: cell-based, Staphylococcus aureus; conditions: Gram-positive; measured in duplicate
E. faecium = assay: MIC against E. faecium; format: cell-based, Enterococcus faecium; conditions: Gram-positive; measured in duplicate
MDR S. aureus strains = assay: MIC against MDR S. aureus strains; format: cell-based; conditions: Figure 3, Table S9
VRE clinical isolates = assay: MIC against VRE clinical isolates; format: cell-based, Vancomycin-resistant Enterococcus; conditions: Figure 3, Table S9

Row | Substance | MIC E. cloacae (E. cloacae) | MIC E. coli (E. coli) | MIC K. pneumoniae (K. pneumoniae) | MIC A. baumannii (A. baumannii) | MIC P. aeruginosa (P. aeruginosa) | MIC S. aureus (S. aureus) | MIC E. faecium (E. faecium) | MIC against MDR S. aureus strains (MDR S. aureus strains) | MIC against VRE clinical isolates (VRE clinical isolates)
1 | Laterocidine | 1 µg/mL | 0.5 µg/mL | 2 µg/mL | 0.5 µg/mL | 2 µg/mL | >128 µg/mL | >128 µg/mL | – | –
2 | Paenibacterin | 4 µg/mL | 4 µg/mL | 8 µg/mL | 8 µg/mL | 8 µg/mL | 16 µg/mL | 8 µg/mL | – | –
3 | Tridecaptin A | 2 µg/mL | 1 µg/mL | 1 µg/mL | 4 µg/mL | 64 µg/mL | 128 µg/mL | 64 µg/mL | 128 µg/mL | 128 µg/mL
